{
  "source": "paper doi:10.64898/2025.12.10.692519v1",
  "about": "(biorxiv, 2025)",
  "key": {"[1]": {"target": "ALDH1A1 (Homo sapiens, UniProt P00352)", "sequence (P00352 2-501)": "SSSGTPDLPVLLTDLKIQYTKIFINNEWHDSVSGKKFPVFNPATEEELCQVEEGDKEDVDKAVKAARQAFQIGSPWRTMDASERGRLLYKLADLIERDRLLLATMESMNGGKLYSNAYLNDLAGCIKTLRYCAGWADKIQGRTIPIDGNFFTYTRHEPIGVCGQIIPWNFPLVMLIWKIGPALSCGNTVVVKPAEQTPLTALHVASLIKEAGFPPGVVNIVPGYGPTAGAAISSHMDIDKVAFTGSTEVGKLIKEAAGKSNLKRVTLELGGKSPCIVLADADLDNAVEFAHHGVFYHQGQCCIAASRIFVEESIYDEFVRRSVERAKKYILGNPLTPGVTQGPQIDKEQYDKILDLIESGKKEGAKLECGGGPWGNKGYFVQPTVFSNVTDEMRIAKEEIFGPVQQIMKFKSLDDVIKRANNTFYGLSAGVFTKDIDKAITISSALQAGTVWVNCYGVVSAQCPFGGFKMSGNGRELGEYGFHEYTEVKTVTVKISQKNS", "assay": "NADH fluorescence dehydrogenase assay", "format": "biochemical"}, "[2]": {"tested_on": "TG-LAM-134-P0", "assay": "cells", "design": "species or system primary AML patient blasts", "settings": "48 h, read-out: IC50 (µM) / AB8939"}, "[3]": {"tested_on": "TG-LAM-135-P0", "assay": "cells", "design": "species or system primary AML patient blasts", "settings": "48 h, read-out: IC50 (µM) / AB8939"}, "[4]": {"tested_on": "TG-LAM-136-P0", "assay": "cells", "design": "species or system primary AML patient blasts", "settings": "48 h, read-out: IC50 (µM) / AB8939"}, "[5]": {"tested_on": "TG-LAM-138-P0", "assay": "cells", "design": "species or system primary AML patient blasts", "settings": "48 h, read-out: IC50 (µM) / AB8939"}, "[6]": {"tested_on": "TG-LAM-139-P0", "assay": "cells", "design": "species or system primary AML patient blasts", "settings": "48 h, read-out: IC50 (µM) / AB8939"}, "[7]": {"tested_on": "TG-LAM-140-P0", "assay": "cells", "design": "species or system primary AML patient blasts", "settings": "48 h, read-out: IC50 (µM) / AB8939"}, "[8]": {"tested_on": "TG-LAM-141-P0", "assay": "cells", "design": "species or system primary AML patient blasts", "settings": "48 h, read-out: IC50 (µM) / AB8939"}, "[9]": {"tested_on": "TG-LAM-142-P0", "assay": "cells", "design": "species or system primary AML patient blasts", "settings": "48 h, read-out: IC50 (µM) / AB8939"}, "[10]": {"tested_on": "TG-LAM-143-P0", "assay": "cells", "design": "species or system primary AML patient blasts", "settings": "48 h, read-out: IC50 (µM) / AB8939"}, "[11]": {"tested_on": "TG-LAM-144-P0", "assay": "cells", "design": "species or system primary AML patient blasts", "settings": "48 h, read-out: IC50 (µM) / AB8939"}, "[12]": {"tested_on": "TG-LAM-145-P0", "assay": "cells", "design": "species or system primary AML patient blasts", "settings": "48 h, read-out: IC50 (µM) / AB8939"}, "[13]": {"tested_on": "TG-LAM-75-P3", "assay": "cells", "design": "species or system primary AML patient blasts", "settings": "48 h, read-out: IC50 (µM) / AB8939"}, "[14]": {"tested_on": "TG-LAM-76-P3", "assay": "cells", "design": "species or system primary AML patient blasts", "settings": "48 h, read-out: IC50 (µM) / AB8939"}, "[15]": {"tested_on": "TG-LAM-77-P0", "assay": "cells", "design": "species or system primary AML patient blasts", "settings": "48 h, read-out: IC50 (µM) / AB8939"}, "[16]": {"tested_on": "PANC-1", "assay": "cells", "settings": "Homo sapiens, PANC-1, 144 h, read-out: AB8939"}, "[17]": {"tested_on": "SW-872", "assay": "cells", "settings": "Homo sapiens, SW872, 144 h, read-out: AB8939"}, "[18]": {"tested_on": "MESSA", "assay": "cells", "design": "species or system MES-SA/Mx2", "settings": "Homo sapiens, MES-SA, read-out: MES-SA"}, "[19]": {"tested_on": "CHRF", "assay": "cells", "design": "species or system CMK", "settings": "72 h, read-out: AB8939 (IC50 nM)"}},
  "data": [
    {"smiles": "CCOCc1ccc(C)c(Nc2ncc(-c3ccc(N4CCNC4=O)cc3)o2)c1", "note": "[AB8939]", "values": [
      {"measurement": "IC50", "setting": "[1]", "result": 610, "unit": "nM"},
      {"measurement": "IC50", "setting": "[2]", "result": 0.08, "unit": "µM"},
      {"measurement": "IC50", "setting": "[3]", "result": "> 5", "unit": "µM"},
      {"measurement": "IC50", "setting": "[4]", "result": 0.04, "unit": "µM"},
      {"measurement": "IC50", "setting": "[5]", "result": "> 5", "unit": "µM"},
      {"measurement": "IC50", "setting": "[6]", "result": 0.94, "unit": "µM"},
      {"measurement": "IC50", "setting": "[7]", "result": 0.06, "unit": "µM"},
      {"measurement": "IC50", "setting": "[8]", "result": 0.12, "unit": "µM"},
      {"measurement": "IC50", "setting": "[9]", "result": "> 5", "unit": "µM"},
      {"measurement": "IC50", "setting": "[10]", "result": 0.36, "unit": "µM"},
      {"measurement": "IC50", "setting": "[11]", "result": 0.38, "unit": "µM"},
      {"measurement": "IC50", "setting": "[12]", "result": 1.8, "unit": "µM"},
      {"measurement": "IC50", "setting": "[13]", "result": 0.05, "unit": "µM"},
      {"measurement": "IC50", "setting": "[14]", "result": 0.013, "unit": "µM"},
      {"measurement": "IC50", "setting": "[15]", "result": "> 5", "unit": "µM"},
      {"measurement": "IC50", "setting": "[16]", "result": 1, "unit": "nM"},
      {"measurement": "IC50", "setting": "[17]", "result": 1, "unit": "nM"},
      {"measurement": "IC50", "setting": "[18]", "result": "5.7 ± 5", "unit": "nM"},
      {"measurement": "IC50", "setting": "[19]", "result": 9.7, "unit": "nM"}
    ]}
  ]
}
